The source of these data is ChEMBL document CHEMBL1201862, “PubChem BioAssay data set” (2004).

Among the test systems are Malme-3M; BT-549; SW-620; NCI-H23; MDA-N; KM12; MDA-MB-435; HCT-116; LOX IMVI; MOLT-4; SNB-19; UACC-257; SR; SK-MEL-5; MDA-MB-231; OVCAR-8; NCI-H522; ACHN; CCRF-CEM; SNB-75.
Experiment in all cases: NCI anticancer screen, dose series, 48 h

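How tested: cells in 96-well plates exposed to compound for 48 hours at five concentrations. At the GI50, growth is halved.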 Calls of active or inactive are those of the source. Cut-off read from the data, not from the text of the source: active = GI50 up to about 1.1 µM and inactive = higher.

For the compound `CC(C)(C)OC(=O)CCC1NC(=O)[C@@H]2Cc3c([nH]c4ccccc34)C(C3CCCCC3)N2C1=O` (stereo not given in full), the GI50 with Malme-3M was 29.1 µM (inactive); in the assay on BT-549, 48.8 µM (inactive); in the assay on SW-620 it was 44.4 µM (inactive); in the assay with NCI-H23 it was 39.6 µM (inactive); in the assay with MDA-N, 24.5 µM (inactive); in the assay on KM12, 24.9 µM (inactive). The GI50 in the assay with MDA-MB-435 was 30.8 µM (inactive); with HCT-116 it was 27 µM (inactive); in the assay with LOX IMVI it was 26.4 µM (inactive); in the assay on MOLT-4 it was 12.4 µM (inactive); with SNB-19, 41.9 µM (inactive); in the assay on UACC-257 it was 29.4 µM (inactive). In addition, the GI50 is 15.5 µM (inactive) in the assay with SR; 31 µM (inactive) in the assay with SK-MEL-5; 22 µM (inactive) with MDA-MB-231; 50.4 µM (inactive) in the assay with OVCAR-8; 30.3 µM (inactive) with NCI-H522; 33.3 µM (inactive) in the assay with ACHN.

On to `Cc1[nH]c(C)c(CN(C)C)c1CN(C)C`, for which the GI50 in the assay on Malme-3M, in the assay with BT-549, in the assay on SW-620, with NCI-H23, in the assay on MDA-N and in the assay with KM12 was > 100 µM (inactive) in each case. Further, the GI50 with MDA-MB-435, in the assay on HCT-116, with LOX IMVI, in the assay with SNB-19, in the assay with UACC-257 and in the assay with SK-MEL-5 was > 100 µM (inactive) each time. For the same compound, the GI50 in the assay with MDA-MB-231, in the assay on OVCAR-8, in the assay on NCI-H522, in the assay on ACHN and in the assay on CCRF-CEM was > 100 µM (inactive) throughout.

Take `Nc1ccccc1OCc1cc(=O)c(OCc2ccccc2)co1`: the GI50 in the assay on Malme-3M was 34.6 µM (inactive); with BT-549, 33.5 µM (inactive); with SW-620 it was 80.7 µM (inactive); in the assay on NCI-H23 it was 39.6 µM (inactive); in the assay with MDA-N, 19.1 µM (inactive); in the assay with KM12, 6.47 µM (inactive). Moreover, the GI50 was 15.8 µM (inactive) with MDA-MB-435; 64.7 µM (inactive) in the assay with HCT-116; 27.7 µM (inactive) in the assay on LOX IMVI; > 100 µM (inactive) with MOLT-4; > 100 µM (inactive) with SNB-19; 14.3 µM (inactive) in the assay with UACC-257. The GI50 with SR is > 100 µM (inactive); in the assay with SK-MEL-5, 18.8 µM (inactive); in the assay with MDA-MB-231, 19.9 µM (inactive); in the assay with OVCAR-8 it was > 100 µM (inactive); with ACHN, 8.99 µM (inactive); with CCRF-CEM it was > 100 µM (inactive).

Turning to `COc1ccc2nc3cc([N+](=O)[O-])ccc3c(Nc3ccc(S(=O)(=O)NC(C)=O)cc3)c2c1`, the GI50 was > 100 µM (inactive) in the assay on Malme-3M; > 100 µM (inactive) in the assay on BT-549; 46.8 µM (inactive) in the assay on SW-620; > 100 µM (inactive) with NCI-H23; > 100 µM (inactive) in the assay with MDA-N; 76.4 µM (inactive) with MDA-MB-435. Further, the GI50 in the assay on HCT-116 was 44 µM (inactive); with LOX IMVI, 93.3 µM (inactive); in the assay with MOLT-4 it was 29.4 µM (inactive); in the assay with SNB-19, > 100 µM (inactive); in the assay with UACC-257, > 100 µM (inactive); with SR it was 11.5 µM (inactive). Moreover, the GI50 with SK-MEL-5 is 16.6 µM (inactive); in the assay on MDA-MB-231, 50 µM (inactive); with NCI-H522 it was 33.2 µM (inactive); in the assay with ACHN it was 88.1 µM (inactive); in the assay with CCRF-CEM, 23.9 µM (inactive).

For the compound `CN1CCN(c2n[nH]c(=O)c3c2nnn3Cc2ccccc2)CC1`, the GI50 with Malme-3M is > 100 µM (inactive); in the assay with BT-549, 41.5 µM (inactive); in the assay with NCI-H23, > 100 µM (inactive); in the assay on MDA-N, 0.482 µM (active); with KM12 it was > 100 µM (inactive); in the assay on MDA-MB-435, > 100 µM (inactive). Further, the GI50 in the assay with HCT-116, with LOX IMVI, in the assay on MOLT-4, in the assay on SNB-19, with SNB-75 and in the assay on UACC-257 was > 100 µM (inactive) each time. The GI50 in the assay on SR, with SK-MEL-5, with MDA-MB-231, in the assay with OVCAR-8, with ACHN and with CCRF-CEM was > 100 µM (inactive) throughout.

On to `CSc1ccc(/C=C2\N=C(c3ccccc3)N(c3nc4cc(C)c(C)cc4s3)C2=O)cc1`, for which the GI50 with BT-549 is 28.2 µM (inactive); in the assay with SW-620, 17.9 µM (inactive); in the assay on MDA-N, 13.6 µM (inactive); with KM12, 27.4 µM (inactive); with MDA-MB-435, 12.9 µM (inactive); with HCT-116 it was 18.3 µM (inactive). In addition, the GI50 in the assay on LOX IMVI was 19.8 µM (inactive); in the assay on MOLT-4, 61.9 µM (inactive); with SNB-19 it was 30.2 µM (inactive); in the assay on SNB-75 it was 28.8 µM (inactive); in the assay with UACC-257, 43.3 µM (inactive); in the assay with SR, 25 µM (inactive). In addition, the GI50 in the assay on SK-MEL-5 was 21.4 µM (inactive); in the assay on MDA-MB-231, 24.6 µM (inactive); with OVCAR-8, 20.3 µM (inactive); in the assay with ACHN it was 24.9 µM (inactive); in the assay on CCRF-CEM it was 9.35 µM (inactive).

Regarding `O=c1cc(-c2cccnc2)[nH]c2cc3c(cc12)OCO3`, the GI50 in the assay with Malme-3M is 3.15 µM (inactive); in the assay on BT-549, 30.3 µM (inactive); in the assay with SW-620, 6.38 µM (inactive); in the assay on NCI-H23 it was 10.3 µM (inactive); with MDA-N, 2.29 µM (inactive); in the assay on KM12, 3.77 µM (inactive). The GI50 in the assay with MDA-MB-435 was 1.84 µM (inactive); with HCT-116, 4.8 µM (inactive); in the assay with LOX IMVI it was 4.67 µM (inactive); with MOLT-4, 17.1 µM (inactive); in the assay on SNB-19 it was 13 µM (inactive); with SNB-75, 3.29 µM (inactive). Besides, the GI50 is > 26.5 µM (inactive) in the assay with UACC-257; 2.73 µM (inactive) with SK-MEL-5; 29.6 µM (inactive) with MDA-MB-231; 12.9 µM (inactive) in the assay with OVCAR-8; 13.6 µM (inactive) in the assay with ACHN; 6.65 µM (inactive) in the assay on CCRF-CEM.

With `O=CC12CCCN1CCC2`, the GI50 in the assay on Malme-3M, in the assay on BT-549, with SW-620, with NCI-H23, in the assay on MDA-N and with MDA-MB-435 was > 100 µM (inactive) throughout. Further, the GI50 in the assay on HCT-116, in the assay with LOX IMVI, with MOLT-4, in the assay with SNB-19, in the assay on UACC-257 and with SR was > 100 µM (inactive) each time. Besides, the GI50 in the assay with SK-MEL-5, in the assay on MDA-MB-231, in the assay on NCI-H522, in the assay on ACHN and in the assay on CCRF-CEM was > 100 µM (inactive) throughout.

In the case of `COc1cc(/C=c2/c3ccccc3n3c2cc(-c2ccccc2)[n+]3C)cc(OC)c1OC`, the GI50 was 2.19 µM (inactive) in the assay on Malme-3M; 3.78 µM (inactive) with BT-549; 3.82 µM (inactive) in the assay with SW-620; 3.94 µM (inactive) with NCI-H23; 4.04 µM (inactive) in the assay with MDA-N; 1.91 µM (inactive) in the assay with KM12. Besides, the GI50 with MDA-MB-435 was 2.51 µM (inactive); with HCT-116, 2.62 µM (inactive); with LOX IMVI, 3.69 µM (inactive); in the assay with MOLT-4, 2.97 µM (inactive); in the assay with SNB-19 it was 5.48 µM (inactive); with SNB-75, 4.01 µM (inactive). Besides, the GI50 in the assay on UACC-257 is 2.44 µM (inactive); in the assay with SK-MEL-5, 2.69 µM (inactive); in the assay on MDA-MB-231 it was 4.06 µM (inactive); with OVCAR-8, 3.33 µM (inactive); in the assay with NCI-H522, 2.93 µM (inactive); in the assay with ACHN it was 4.07 µM (inactive). Also, the GI50 with CCRF-CEM was 3.52 µM (inactive).

On to `C=CCOC(=O)C1C2OC3(C(C(=O)OC)=C2C(=O)OC)c2ccccc2CCC13` (stereo not given), for which the GI50 with Malme-3M, in the assay with BT-549, with SW-620, in the assay on NCI-H23, with MDA-N and in the assay with KM12 was > 10 µM (inactive) throughout. In addition, the GI50 with MDA-MB-435, in the assay on HCT-116, in the assay with LOX IMVI, with MOLT-4, with SNB-19 and in the assay with UACC-257 was > 10 µM (inactive) in each case. Moreover, the GI50 in the assay with SR, in the assay with SK-MEL-5, with MDA-MB-231, in the assay with OVCAR-8, in the assay with ACHN and in the assay with CCRF-CEM was > 10 µM (inactive) each time.

Consider `OCCNc1ncnc2[nH]cnc12`, for which the GI50 with Malme-3M, in the assay with BT-549, with SW-620, in the assay with NCI-H23, in the assay with MDA-N and with KM12 was > 100 µM (inactive) each time. Moreover, the GI50 with MDA-MB-435 was > 100 µM (inactive); in the assay with HCT-116 it was > 100 µM (inactive); in the assay on LOX IMVI, > 100 µM (inactive); in the assay on MOLT-4, > 100 µM (inactive); in the assay with SNB-19, > 100 µM (inactive); in the assay on SNB-75 it was 0.296 µM (active). In addition, the GI50 in the assay with UACC-257, in the assay on SK-MEL-5, in the assay with MDA-MB-231, in the assay with OVCAR-8, with NCI-H522 and in the assay on ACHN was > 100 µM (inactive) throughout.
